Source: article PMC11774906, “Volume-regulated anion channels conduct ATP in undifferentiated mammary cells and promote tumorigenesis in xenograft nude mouse” (Frontiers in Cell and Developmental Biology, 2025)

Molecular target: T1, volume-regulated anion channels (VRACs); LRRC8A-containing hexamer (Homo sapiens, UniProt Q8IWT6)
T1 construct: native channel in intact MCF10A cells; LRRC8 heterohexamer of undefined subunit composition, LRRC8A essential; A, C, D prominently expressed, B and E minimal
T1 sequence (Q8IWT6 1-810): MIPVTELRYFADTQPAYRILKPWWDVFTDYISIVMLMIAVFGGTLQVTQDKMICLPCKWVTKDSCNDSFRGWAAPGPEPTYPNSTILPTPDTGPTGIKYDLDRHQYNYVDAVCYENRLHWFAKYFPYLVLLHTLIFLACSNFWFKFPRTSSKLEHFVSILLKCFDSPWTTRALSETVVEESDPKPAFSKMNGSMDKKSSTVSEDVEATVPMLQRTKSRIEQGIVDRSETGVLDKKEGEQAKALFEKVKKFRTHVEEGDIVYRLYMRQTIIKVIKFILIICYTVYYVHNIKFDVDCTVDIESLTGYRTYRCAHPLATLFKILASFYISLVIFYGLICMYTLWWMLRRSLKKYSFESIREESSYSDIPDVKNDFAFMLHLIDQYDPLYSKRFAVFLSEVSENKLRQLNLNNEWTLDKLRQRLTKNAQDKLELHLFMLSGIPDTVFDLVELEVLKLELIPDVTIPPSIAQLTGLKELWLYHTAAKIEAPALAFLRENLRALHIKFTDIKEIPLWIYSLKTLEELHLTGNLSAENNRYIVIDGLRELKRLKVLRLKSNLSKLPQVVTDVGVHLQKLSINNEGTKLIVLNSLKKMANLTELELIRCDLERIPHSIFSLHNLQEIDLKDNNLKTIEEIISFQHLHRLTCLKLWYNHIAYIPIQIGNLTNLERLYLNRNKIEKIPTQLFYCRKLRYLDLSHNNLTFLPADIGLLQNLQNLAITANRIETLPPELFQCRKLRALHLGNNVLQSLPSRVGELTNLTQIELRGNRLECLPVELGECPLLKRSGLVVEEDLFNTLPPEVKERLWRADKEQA
T1 sequence (Q8TDW0 1-803 partner): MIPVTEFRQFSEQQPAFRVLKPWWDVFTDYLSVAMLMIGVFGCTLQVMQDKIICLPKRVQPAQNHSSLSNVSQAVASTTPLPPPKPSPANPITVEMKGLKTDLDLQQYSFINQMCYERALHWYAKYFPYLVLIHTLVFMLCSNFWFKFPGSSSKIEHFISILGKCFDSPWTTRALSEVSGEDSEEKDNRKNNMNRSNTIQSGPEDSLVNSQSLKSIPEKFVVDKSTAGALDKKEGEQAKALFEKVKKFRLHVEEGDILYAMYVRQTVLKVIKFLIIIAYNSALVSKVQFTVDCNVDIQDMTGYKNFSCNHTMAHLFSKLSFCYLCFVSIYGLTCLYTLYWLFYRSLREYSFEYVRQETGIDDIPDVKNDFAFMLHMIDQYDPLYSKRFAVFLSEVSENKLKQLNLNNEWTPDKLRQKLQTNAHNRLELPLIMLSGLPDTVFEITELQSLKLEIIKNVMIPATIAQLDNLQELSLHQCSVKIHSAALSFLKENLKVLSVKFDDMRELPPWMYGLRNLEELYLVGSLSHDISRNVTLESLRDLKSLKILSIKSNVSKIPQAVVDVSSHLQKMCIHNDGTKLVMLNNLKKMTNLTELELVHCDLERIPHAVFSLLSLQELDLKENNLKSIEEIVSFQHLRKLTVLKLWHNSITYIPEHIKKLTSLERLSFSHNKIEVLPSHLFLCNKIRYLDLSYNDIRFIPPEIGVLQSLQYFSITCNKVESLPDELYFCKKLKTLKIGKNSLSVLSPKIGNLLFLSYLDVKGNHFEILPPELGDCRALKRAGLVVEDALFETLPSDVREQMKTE
T1 sequence (Q7L1W4 1-858 partner): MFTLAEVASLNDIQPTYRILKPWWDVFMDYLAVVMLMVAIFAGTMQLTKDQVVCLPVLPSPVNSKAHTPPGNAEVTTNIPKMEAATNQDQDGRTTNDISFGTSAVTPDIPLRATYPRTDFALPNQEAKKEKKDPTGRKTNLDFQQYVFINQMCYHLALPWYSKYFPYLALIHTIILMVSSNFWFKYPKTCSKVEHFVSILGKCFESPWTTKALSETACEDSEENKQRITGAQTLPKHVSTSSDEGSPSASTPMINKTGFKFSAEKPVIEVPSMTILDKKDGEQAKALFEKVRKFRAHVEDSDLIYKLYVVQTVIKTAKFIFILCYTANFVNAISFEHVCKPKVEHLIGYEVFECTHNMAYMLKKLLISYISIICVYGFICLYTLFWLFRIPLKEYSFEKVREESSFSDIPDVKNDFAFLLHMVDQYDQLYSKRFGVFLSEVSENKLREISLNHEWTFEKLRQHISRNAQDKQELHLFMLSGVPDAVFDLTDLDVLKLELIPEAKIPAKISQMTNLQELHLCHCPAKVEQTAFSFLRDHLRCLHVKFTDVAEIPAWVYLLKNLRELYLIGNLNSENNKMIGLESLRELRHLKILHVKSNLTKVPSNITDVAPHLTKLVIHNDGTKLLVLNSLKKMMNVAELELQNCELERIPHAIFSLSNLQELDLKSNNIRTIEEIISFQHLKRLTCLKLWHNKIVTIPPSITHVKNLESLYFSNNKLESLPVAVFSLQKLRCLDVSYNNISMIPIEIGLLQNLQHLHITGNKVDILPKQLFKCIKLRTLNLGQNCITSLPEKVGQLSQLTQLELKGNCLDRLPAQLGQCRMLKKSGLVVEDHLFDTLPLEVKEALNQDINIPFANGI
Assay: luciferin-luciferase imaging of hypotonic diffuse ATP release in MCF10A cells
Format: cell-based
Details: 50% hypotonic stress; pH 7.4, 30 °C; decay of ATP signal after DCPIB, exponential fit; indirect read-out (ATP release)

Q: For `CCCCC1(C2CCCC2)Cc2cc(OCCCC(=O)O)c(Cl)c(Cl)c2C1=O` (stereo not shown) [DCPIB, 4-[(2-Butyl-6,7-dichloro-2-cyclopentyl-2,3-dihydro-1-oxo-1H-inden-5-yl)oxy] butanoic acid], which IC50 is on record?
A: 38.5 µM
